Data as given in patent publication US9695155B2, “Herbicidal substituted pyrimidinyloxy benzene compounds” (E. I. DU PONT DE NEMOURS AND COMPANY, priority 2013, dated 2017).

Experiments:
[1] = tested on: bluegrass; test: Test D preemergence; assay type: in vivo, Poa annua; conditions: Poa annua, pre-emergence, scale 0-100, read-out: Plant response rating, Bluegrass; for pest or weed control at 31 g/ha: 31 g ai/ha; for pest or weed control at 62 g/ha: 62 g ai/ha; for pest or weed control at 125 g/ha: 125 g ai/ha; for pest or weed control at 250 g/ha: 250 g ai/ha
How it was run: (§1)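 Visual ratings from 0 (no effect) to 100 (complete control) relative to untreated plants were taken 7–21 days after treatment. Chemicals in a surfactant-containing solvent mixture were applied preemergence to seeds in silt loam, or postemergence to plants 2–18 cm tall (1–4 leaves) grown in a peat-based potting medium.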

[2] = tested on: blackgrass; test: Test D preemergence; assay type: in vivo, Alopecurus myosuroides; conditions: Alopecurus myosuroides, pre-emergence, scale 0-100, read-out: Plant response rating, Blackgrass; for pest or weed control at 31 g/ha: 31 g ai/ha; for pest or weed control at 62 g/ha: 62 g ai/ha; for pest or weed control at 125 g/ha: 125 g ai/ha; for pest or weed control at 250 g/ha: 250 g ai/ha
How it was run: as §1

[3] = tested on: Italian ryegrass; test: Test D preemergence; assay type: in vivo, Lolium multiflorum; conditions: Lolium multiflorum, pre-emergence; for pest or weed control at 31 g/ha: 31 g ai/ha, scale 0 (no effect) to 100 (complete control), read-out: Plant response rating, Ryegrass, Italian; for pest or weed control at 62 g/ha: 62 g ai/ha; for pest or weed control at 62 g/ha / pest or weed control at 125 g/ha / pest or weed control at 250 g/ha: scale 0-100, read-out: Plant response rating, Ryegrass, Italian; for pest or weed control at 125 g/ha: 125 g ai/ha; for pest or weed control at 250 g/ha: 250 g ai/ha
How it was run: as §1

[4] = tested on: spring barley; test: Test D preemergence; assay type: in vivo, Hordeum vulgare; conditions: Hordeum vulgare, pre-emergence, scale 0-100, read-out: Plant response rating, Barley, Spring; for plant injury at 31 g/ha: 31 g ai/ha; for plant injury at 62 g/ha: 62 g ai/ha; for plant injury at 125 g/ha: 125 g ai/ha; for plant injury at 250 g/ha: 250 g ai/ha
How it was run: as §1

[5] = tested on: winter barley; test: Test D preemergence; assay type: in vivo, Hordeum vulgare; conditions: Hordeum vulgare, pre-emergence, scale 0-100, read-out: Plant response rating, Barley, Winter; for plant injury at 31 g/ha: 31 g ai/ha; for plant injury at 62 g/ha: 62 g ai/ha; for plant injury at 125 g/ha: 125 g ai/ha; for plant injury at 250 g/ha: 250 g ai/ha
How it was run: as §1

[6] = tested on: wild mustard; test: Test D preemergence; assay type: in vivo, Sinapis arvensis; conditions: Brassica, pre-emergence, scale 0-100, read-out: Plant response rating, Mustard, Wild; for pest or weed control at 31 g/ha: 31 g ai/ha; for pest or weed control at 62 g/ha: 62 g ai/ha; for pest or weed control at 125 g/ha: 125 g ai/ha; for pest or weed control at 250 g/ha: 250 g ai/ha
How it was run: as §1

[7] = tested on: wild oat; test: Test D preemergence; assay type: in vivo, Avena fatua; conditions: Avena fatua, pre-emergence, scale 0-100, read-out: Plant response rating, Oat, Wild; for pest or weed control at 31 g/ha: 31 g ai/ha; for pest or weed control at 62 g/ha: 62 g ai/ha; for pest or weed control at 125 g/ha: 125 g ai/ha; for pest or weed control at 250 g/ha: 250 g ai/ha
How it was run: as §1

[8] = tested on: green foxtail; test: Test D postemergence; assay type: in vivo, Setaria viridis; conditions: Setaria viridis, post-emergence, scale 0 to 100 (0 no effect, 100 complete control), read-out: Plant response rating, Foxtail, Green; for pest or weed control at 31 g/ha: 31 g ai/ha; for pest or weed control at 62 g/ha: 62 g ai/ha; for pest or weed control at 125 g/ha: 125 g ai/ha; for pest or weed control at 250 g/ha: 250 g ai/ha
How it was run: as §1

[9] = tested on: spring wheat; test: Test D postemergence; assay type: in vivo, Triticum aestivum; conditions: Triticum aestivum, post-emergence, scale 0 to 100 (0 no effect, 100 complete control), read-out: Plant response rating, Wheat, Spring; for plant injury at 31 g/ha: 31 g ai/ha; for plant injury at 62 g/ha: 62 g ai/ha; for plant injury at 125 g/ha: 125 g ai/ha; for plant injury at 250 g/ha: 250 g ai/ha
How it was run: as §1

[10] = tested on: winter wheat; test: Test D postemergence; assay type: in vivo, Triticum aestivum; conditions: Triticum aestivum, post-emergence, scale 0 to 100 (0 no effect, 100 complete control), read-out: Plant response rating, Wheat, Winter; for plant injury at 31 g/ha: 31 g ai/ha; for plant injury at 62 g/ha: 62 g ai/ha; for plant injury at 125 g/ha: 125 g ai/ha; for plant injury at 250 g/ha: 250 g ai/ha
How it was run: as §1

[11] = tested on: Italian ryegrass; test: Test E postemergence; assay type: in vivo, Lolium multiflorum; conditions: Lolium multiflorum, post-emergence, read-out: Plant response rating, Ryegrass, Italian; for pest or weed control at 31 g/ha / pest or weed control at 62 g/ha / pest or weed control at 125 g/ha / pest or weed control at 250 g/ha: Postemergence, scale 0 to 100; for pest or weed control at 31 g/ha: 31 g ai/ha; for pest or weed control at 62 g/ha: 62 g ai/ha; for pest or weed control at 125 g/ha: 125 g ai/ha; for pest or weed control at 250 g/ha: 250 g ai/ha; for pest or weed control at 16 g/ha: postemergence, 16 g ai/ha, scale 0 to 100, 0 no effect, 100 complete control
How it was run: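 Response was scored visually on a 0-100 scale (100 = complete control) versus controls after 14 to 21 days in the greenhouse. Test chemicals, formulated with surfactant in a non-phytotoxic solvent mixture, had been applied preemergence to seeds in silt loam soil or postemergence to 1- to 4-leaf plants in potting medium.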

SMILES: N#Cc1cccc(Oc2ncc(Br)cn2)c1-n1cc(C(F)(F)F)cn1 [Compound 59, 3-[(5-bromo-2-pyrimidinyl)oxy]-2-[4-(trifluoromethyl)-1H-pyrazol-1-yl]benzonitrile]
- pest or weed control at 31 g/ha [1]: 5%
- pest or weed control at 62 g/ha [1]: 10%
- pest or weed control at 125 g/ha [1]: 35%
- pest or weed control at 250 g/ha [1]: 85%
- pest or weed control at 31 g/ha [2]: 25%
- pest or weed control at 62 g/ha [2]: 55%
- pest or weed control at 125 g/ha [2]: 70%
- pest or weed control at 250 g/ha [2]: 85%
- pest or weed control at 31 g/ha [3]: 0%
- pest or weed control at 62 g/ha [3]: 5%
- pest or weed control at 125 g/ha [3]: 60%
- pest or weed control at 250 g/ha [3]: 70%
- plant injury at 31 g/ha [4]: 5%
- plant injury at 62 g/ha [4]: 5%
- plant injury at 125 g/ha [4]: 50%
- plant injury at 250 g/ha [4]: 75%
- plant injury at 31 g/ha [5]: 0%
- plant injury at 62 g/ha [5]: 10%
- plant injury at 125 g/ha [5]: 40%
- plant injury at 250 g/ha [5]: 80%
- pest or weed control at 31 g/ha [6]: 15%
- pest or weed control at 62 g/ha [6]: 100%
- pest or weed control at 125 g/ha [6]: 100%
- pest or weed control at 250 g/ha [6]: 100%
- pest or weed control at 31 g/ha [7]: 0%
- pest or weed control at 62 g/ha [7]: 0%
- pest or weed control at 125 g/ha [7]: 20%
- pest or weed control at 250 g/ha [7]: 55%
- pest or weed control at 31 g/ha [8]: 20%
- pest or weed control at 62 g/ha [8]: 35%
- pest or weed control at 125 g/ha [8]: 50%
- pest or weed control at 250 g/ha [8]: 80%
- plant injury at 31 g/ha [9]: 10%
- plant injury at 62 g/ha [9]: 15%
- plant injury at 125 g/ha [9]: 20%
- plant injury at 250 g/ha [9]: 25%
- plant injury at 31 g/ha [10]: 10%
- plant injury at 62 g/ha [10]: 15%
- plant injury at 125 g/ha [10]: 20%
- plant injury at 250 g/ha [10]: 20%
- pest or weed control at 31 g/ha [11]: 0%
- pest or weed control at 62 g/ha [11]: 15%
- pest or weed control at 125 g/ha [11]: 25%
- pest or weed control at 250 g/ha [11]: 60%
- pest or weed control at 16 g/ha [11]: 0%

SMILES: N#Cc1cccc(Oc2ncc(Cl)cn2)c1-n1cc(C(F)(F)F)cn1 [Compound 58, 3-[(5-chloro-2-pyrimidinyl)oxy]-2-[4-(trifluoromethyl)-1H-pyrazol-1-yl]benzonitrile]
- pest or weed control at 31 g/ha [1]: 10%
- pest or weed control at 62 g/ha [1]: 50%
- pest or weed control at 125 g/ha [1]: 100%
- pest or weed control at 250 g/ha [1]: 100%
- pest or weed control at 31 g/ha [2]: 20%
- pest or weed control at 62 g/ha [2]: 55%
- pest or weed control at 125 g/ha [2]: 100%
- pest or weed control at 250 g/ha [2]: 100%
- pest or weed control at 31 g/ha [3]: 10%
- pest or weed control at 62 g/ha [3]: 35%
- pest or weed control at 125 g/ha [3]: 100%
- pest or weed control at 250 g/ha [3]: 100%
- plant injury at 31 g/ha [4]: 10%
- plant injury at 62 g/ha [4]: 50%
- plant injury at 125 g/ha [4]: 85%
- plant injury at 250 g/ha [4]: 100%
- plant injury at 31 g/ha [5]: 10%
- plant injury at 62 g/ha [5]: 35%
- plant injury at 125 g/ha [5]: 80%
- plant injury at 250 g/ha [5]: 100%
- pest or weed control at 31 g/ha [6]: 90%
- pest or weed control at 62 g/ha [6]: 100%
- pest or weed control at 125 g/ha [6]: 100%
- pest or weed control at 250 g/ha [6]: 100%
- pest or weed control at 31 g/ha [7]: 15%
- pest or weed control at 62 g/ha [7]: 25%
- pest or weed control at 125 g/ha [7]: 60%
- pest or weed control at 250 g/ha [7]: 100%
- pest or weed control at 31 g/ha [8]: 20%
- pest or weed control at 62 g/ha [8]: 40%
- pest or weed control at 125 g/ha [8]: 65%
- pest or weed control at 250 g/ha [8]: 80%
- plant injury at 31 g/ha [9]: 10%
- plant injury at 62 g/ha [9]: 15%
- plant injury at 125 g/ha [9]: 20%
- plant injury at 250 g/ha [9]: 35%
- plant injury at 31 g/ha [10]: 15%
- plant injury at 62 g/ha [10]: 20%
- plant injury at 125 g/ha [10]: 25%
- plant injury at 250 g/ha [10]: 40%
- pest or weed control at 31 g/ha [11]: 10%
- pest or weed control at 62 g/ha [11]: 20%
- pest or weed control at 125 g/ha [11]: 35%
- pest or weed control at 250 g/ha [11]: 60%
- pest or weed control at 16 g/ha [11]: 10%
